From patent US20260274892A1, “MACROCYCLIC BROAD SPECTRUM ANTIBIOTICS” (RQx Pharmaceuticals, Inc., priority 2017, published 2026)

Columns and labels:
[1] = tested on: Methicillin Resistant Staphylococcus aureus strain USA 200; assay: Minimum inhibitory concentration (MIC), CLSI broth micro-dilution, S. aureus; type: cell-based; settings: Staphylococcus aureus, MRSA / USA200; Table 6; MRSA USA 200; cation adjusted Mueller Hinton Broth + 0.002% Tween-80; 35° C., 22 hours
Description: In vitro antimicrobial activity of each compound was determined by measuring minimal inhibitor concentrations (MICs) using the broth micro-dilution technique as approved by the Clinical and Laboratory Standards Institute (CLSI) (Methods for Dilution Antimicrobial Susceptibility Tests for Bacteria that Grow Aerobically; Approved Standard-Eighth Edition. CLSI document M07-A8. Wayne, PA: Clinical and Laboratroy Standards; 2009). Antibacterial activity was measure against two strains of bacteria: a Methicillin Resistant Staphylococcus aureus strain USA 200, (S. aureus) and Escherichia coli ATCC 25922 (E. coli), a clinically relevant Gram-negative strain. Cells were inoculated onto plates of Trypyticase Soy Agar or Luria Agar respectively and grown at 35° C. for 20 hours. Inocula suspensions were prepared by scraping cells into 1 mL of testing media (cation adjusted Mueller Hinton Broth supplemented with 0.002% v/v Tween-80) and diluting to a final OD600nm of 0.01.
Test compounds were prepared in DMSO at a concentration of 10 mg/mL. In protocol 1, the compound stocks were diluted into testing media at a concentration of 64 µg/ml and serial 2-fold dilutions were made in the same media, in 96-well U bottom microtiter dishes, for a total of 10 compound concentrations. In protocol 2, the compound stocks were diluted into testing media at a concentration of 4 µg/mL and serial 2-fold dilutions were made in the same media, in 96-well U bottom microtiter dishes, for a total of 10 compound concentrations. In protocol 3, compound stocks were diluted into testing media at a concentration of 0.5 μg/mL, with serial 2-fold dilutions conducted as described above. In protocol 4, compound stocks were diluted into testing media at a concentration of […], with serial 2-fold dilutions conducted as described above. Inocula suspensions were added to the 2-fold serial dilutions of test compounds to a final density of GD OD600nm of 0.0005 and incubated at 35° C. for 22 hours.

[2] = tested on: Escherichia coli ATCC 25922; assay: Minimum inhibitory concentration (MIC), CLSI broth micro-dilution, E. coli; type: cell-based; settings: Escherichia coli
Procedure, shortened: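 Colonies grown 20 h at 35° C on Trypticase Soy agar (MRSA) or Luria agar (E. coli) were suspended in cation-adjusted Mueller Hinton broth with 0.002% Tween-80. Suspensions were added at OD600 0.0005 to 10-point twofold compound dilutions, then incubated 22 h at 35° C.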

[3] = ATCC25922, 22 h, Table 6, cation adjusted Mueller Hinton Broth + 0.002% Tween-80, 35° C.
[4] = ATCC25922, Table 6, cation adjusted Mueller Hinton Broth + 0.002% Tween-80, 35° C., 22 hours
[5] = ATCC25922, 22 h, Table 7, cation adjusted Mueller Hinton Broth + 0.002% Tween-80, 35° C.

For `CCCCc1ccc(-c2ccn(-c3ccc(C(=O)N[C@@H](CCN)C(=O)N(C)[C@@H]4C(=O)N[C@@H](C)C(=O)N[C@H](C(=O)NCC#N)Cc5ccc(OCCN)c(c5)-c5cc4ccc5OCCN)c(C)c3)n2)cc1` (racemic) [Compound 201, rac-(8S,11S,14S)-3,18-bis(2-aminoethoxy)-N-(cyanomethyl)-11-methyl-14-[methyl-[rac-(2S)-4-amino-2-[[4-[3-(4-butylphenyl)pyrazol-1-yl]-2-methyl-benzoyl]amino]butanoyl]amino]-10,13-dioxo-9,12-diazatricyclo[13.3.1.12,6]icosa-1(18),2(20),3,5,15(19),16-hexaene-8-carboxamide], which MIC [1] is on record?
Its MIC is 0.062 µM.

What about the MIC [2, 3] of the same compound?
The MIC was 0.42 µM.

For `Cc1cc(-c2ccc(S(F)(F)(F)(F)F)cc2)ccc1C(=O)N[C@@H](CCN)C(=O)N(C)[C@@H]1C(=O)N[C@@H](C)C(=O)N[C@H](C(=O)NCC#N)Cc2ccc(OCCN)c(c2)-c2cc1ccc2OCCN` (racemic) [Compound 202, rac-(8S,11S,14S)-3,18-bis(2-aminoethoxy)-N-(cyanomethyl)-11-methyl-14-[methyl-[rac-(2S)-4-amino-2-[[2-methyl-4-[4-(pentafluoro-lambda6-sulfanyl)phenyl]benzoyl]amino]butanoyl]amino]-10,13-dioxo-9,12-diazatricyclo[13.3.1.12,6]icosa-1(18),2(20),3,5,15(19),16-hexaene-8-carboxamide], which MIC [1] is on record?
The MIC was 0.023 µM.

And the MIC [2, 3]?
Its MIC is 0.37 µM.

Which MIC [1] does the source give for `Cc1cc(-c2ccc(C(C)(C)C)cc2)ccc1C(=O)N[C@@H](CCN)C(=O)N(C)[C@@H]1C(=O)N[C@@H](C)C(=O)N[C@H](C(=O)NCC#N)Cc2ccc(OCCN)c(c2)-c2cc1ccc2OCCN` (racemic) [Compound 203, rac-(8S,11S,14S)-3,18-bis(2-aminoethoxy)-N-(cyanomethyl)-11-methyl-14-[methyl-[rac-(2S)-4-amino-2-[[4-(4-tert-butylphenyl)-2-methyl-benzoyl]amino]butanoyl]amino]-10,13-dioxo-9,12-diazatricyclo[13.3.1.12,6]icosa-1(18),2(20),3,5,15(19),16-hexaene-8-carboxamide] here?
Its MIC is 0.031 µM.

What about the MIC [2, 3] of the same compound?
The MIC was 0.13 µM.

Which MIC [2, 4] does the source give for `CC[C@H](NC(=O)c1c(C)nc(-c2ccc(OC3CCCCC3)cc2)nc1C)C(=O)N[C@@H](CCN)C(=O)N(C)[C@@H]1C(=O)N[C@@H](C)C(=O)N[C@H](C(=O)NCC#N)Cc2ccc(OCCN)c(c2)-c2cc1ccc2OCCN` [Compound 510, (8S,11S,14S)-14-[[(2S)-4-amino-2-[[(2S)-2-[[2-[4-(cyclohexoxy)phenyl]-4,6-dimethyl-pyrimidine-5-carbonyl]amino]butanoyl]amino]butanoyl]-methyl-amino]-3,18-bis(2-aminoethoxy)-N-(cyanomethyl)-11-methyl-10,13-dioxo-9,12-diazatricyclo[13.3.1.12,6]icosa-1(18),2(20),3,5,15(19),16-hexaene-8-carboxamide] here?
The MIC was 1.5 µM.

Which MIC [2, 4] does the source give for `Cc1nc(-c2ccc(OC3CCCCC3)cc2)nc(C)c1C(=O)N[C@@H](CCNC(=O)CO)C(=O)N(C)[C@@H]1C(=O)N[C@@H](C)C(=O)N[C@H](C(=O)NCC#N)Cc2ccc(OCCN)c(c2)-c2cc1ccc2OCCN` [Compound 511, (8S,11S,14S)-3,18-bis(2-aminoethoxy)-N-(cyanomethyl)-14-[[(2S)-2-[[2-[4-(cyclohexoxy)phenyl]-4,6-dimethyl-pyrimidine-5-carbonyl]amino]-4-[(2-hydroxyacetyl)amino]butanoyl]-methyl-amino]-11-methyl-10,13-dioxo-9,12-diazatricyclo[13.3.1.12,6]icosa-1(18),2(20),3,5,15(19),16-hexaene-8-carboxamide] here?
The MIC was 2 µM.

How did the MIC [2, 3] turn out when `Cc1nc(-c2ccc(OC3CCCCC3)cc2)nc(C)c1C(=O)N[C@@H](CCNC(=O)NO)C(=O)N(C)[C@@H]1C(=O)N[C@@H](C)C(=O)N[C@H](C(=O)NCC#N)Cc2ccc(OCCN)c(c2)-c2cc1ccc2OCCN` [Compound 512, (8S,11S,14S)-3,18-bis(2-aminoethoxy)-N-(cyanomethyl)-14-[[(2S)-2-[[2-[4-(cyclohexoxy)phenyl]-4,6-dimethyl-pyrimidine-5-carbonyl]amino]-4-(hydroxycarbamoylamino)butanoyl]-methyl-amino]-11-methyl-10,13-dioxo-9,12-diazatricyclo[13.3.1.12,6]icosa-1(18),2(20),3,5,15(19),16-hexaene-8-carboxamide] was run?
The MIC was 1 µM.

How did the MIC [2, 5] turn out when `CC(=O)Nc1cc2cc(c1O)-c1cc(ccc1OCCN)[C@H](N(C)C(=O)[C@H](CCN)NC(=O)c1c(C)nc(-c3ccc(C(C)(C)C)cc3)nc1C)C(=O)N[C@@H](C)C(=O)N[C@H](C(=O)NCC#N)C2` [Compound 559, (4S,7S,10S)-2^5-acetamido-10-((S)-4-amino-2-(2-(4-(tert-butyl)phenyl)-4,6-dimethylpyrimidine-5-carboxamido)-N-methylbutanamido)-1^6-(2-aminoethoxy)-N-(cyanomethyl)-2^6-hydroxy-7-methyl-6,9-dioxo-5,8-diaza-1,2(1,3)-dibenzenacyclodecaphane-4-carboxamide] was run?
Its MIC is 0.38 µM.

For `Cc1nc(-c2ccc(C(C)(C)C)cc2)nc(C)c1C(=O)N[C@@H](CCN)C(=O)N(C)[C@@H]1C(=O)N[C@@H](C)C(=O)N[C@H](C(=O)NCC#N)Cc2cc(F)c(O)c(c2)-c2cc1ccc2OCCN` [Compound 560, (4S,7S,10S)-10-((S)-4-amino-2-(2-(4-(tert-butyl)phenyl)-4,6-dimethylpyrimidine-5-carboxamido)-N-methylbutanamido)-1^6-(2-aminoethoxy)-N-(cyanomethyl)-2^5-fluoro-2^6-hydroxy-7-methyl-6,9-dioxo-5,8-diaza-1,2(1,3)-dibenzenacyclodecaphane-4-carboxamide], which MIC [2, 5] is on record?
Its MIC is 0.25 µM.

For `Cc1nc(-c2ccc(C(C)(C)C)cc2)nc(C)c1C(=O)N[C@@H](CCN)C(=O)N(C)[C@@H]1C(=O)N[C@@H](C)C(=O)N[C@H](C(=O)NCC#N)Cc2ccc(OCCN)c(c2)-c2cc1cc(OCCN)c2O` [Compound 583, (8S,11S,14S)-14-[[(2S)-4-amino-2-[[2-(4-tert-butylphenyl)-4,6-dimethyl-pyrimidine-5-carbonyl]amino]butanoyl]-methyl-amino]-3,17-bis(2-aminoethoxy)-N-(cyanomethyl)-18-hydroxy-11-methyl-10,13-dioxo-9,12-diazatricyclo[13.3.1.12,6]icosa-1(18),2(20),3,5,15(19),16-hexaene-8-carboxamide], which MIC [2, 5] is on record?
Its MIC is 0.17 µM.

Which MIC [2, 5] does the source give for `COc1c(NCCN)cc2cc1-c1cc(ccc1O)C[C@@H](C(=O)NCC#N)NC(=O)[C@H](C)NC(=O)[C@H]2N(C)C(=O)[C@H](CCN)NC(=O)c1c(C)nc(-c2ccc(C(C)(C)C)cc2)nc1C` [Compound 630, (8S,11S,14S)-14-[[(2S)-4-amino-2-[[2-(4-tert-butylphenyl)-4,6-dimethyl-pyrimidine-5-carbonyl]amino]butanoyl]-methyl-amino]-17-(2-aminoethylamino)-N-(cyanomethyl)-3-hydroxy-18-methoxy-11-methyl-10,13-dioxo-9,12-diazatricyclo[13.3.1.12,6]icosa-1(18),2(20),3,5,15(19),16-hexaene-8-carboxamide] here?
Its MIC is 0.25 µM.

`Cc1nc(-c2ccc(C(C)(C)C)cc2)nc(C)c1C(=O)N[C@@H](CCN)C(=O)N(C)[C@@H]1C(=O)N[C@@H](C)C(=O)N[C@H](C(=O)NCC#N)Cc2ccc(O)c(c2)-c2cc1cc(OCCN)c2O` [Compound 632, (8S,11S,14S)-14-[[(2S)-4-amino-2-[[2-(4-tert-butylphenyl)-4,6-dimethyl-pyrimidine-5-carbonyl]amino]butanoyl]-methyl-amino]-17-(2-aminoethoxy)-N-(cyanomethyl)-3,18-dihydroxy-11-methyl-10,13-dioxo-9,12-diazatricyclo[13.3.1.12,6]icosa-1(18),2(20),3,5,15(19),16-hexaene-8-carboxamide] was tested. Which MIC [2, 5] did it give?
Its MIC is 0.5 µM.

For `Cc1nc(-c2ccc(C(C)(C)C)cc2)nc(C)c1C(=O)N[C@@H](CCN)C(=O)N(C)[C@@H]1C(=O)N[C@@H](C)C(=O)N[C@H](C(=O)NCC#N)Cc2ccc(O)c(c2)-c2cc1cc(OCCN)c2OCCN` [Compound 633, (8S,11S,14S)-14-[[(2S)-4-amino-2-[[2-(4-tert-butylphenyl)-4,6-dimethyl-pyrimidine-5-carbonyl]amino]butanoyl]-methyl-amino]-17,18-bis(2-aminoethoxy)-N-(cyanomethyl)-3-hydroxy-11-methyl-10,13-dioxo-9,12-diazatricyclo[13.3.1.12,6]icosa-1(18),2(20),3,5,15(19),16-hexaene-8-carboxamide], which MIC [2, 5] is on record?
Its MIC is 0.047 µM.
